Reference: ChEMBL document CHEMBL1136596, “Four novel bis-(naphtho-gamma-pyrones) isolated from Fusarium species as inhibitors of HIV-1 integrase” (Bioorg Med Chem Lett, 2003)

Legend:
[1] = target: T1, Human immunodeficiency virus type 1 integrase (Human immunodeficiency virus 1, UniProt Q7ZJM1); assay: Inhibition of HIV-1 integrase in coupled transfer assay
[2] = target: T1, Human immunodeficiency virus type 1 integrase; assay: Inhibition of HIV-1 integrase in strand transfer assay
[3] = tested on: Human immunodeficiency virus 1; assay: Viral protection was determined in a 24 hr HIV-1 viral infectivity assay; format: functional, organism-based

T1 sequence (Q7ZJM1 whole entry): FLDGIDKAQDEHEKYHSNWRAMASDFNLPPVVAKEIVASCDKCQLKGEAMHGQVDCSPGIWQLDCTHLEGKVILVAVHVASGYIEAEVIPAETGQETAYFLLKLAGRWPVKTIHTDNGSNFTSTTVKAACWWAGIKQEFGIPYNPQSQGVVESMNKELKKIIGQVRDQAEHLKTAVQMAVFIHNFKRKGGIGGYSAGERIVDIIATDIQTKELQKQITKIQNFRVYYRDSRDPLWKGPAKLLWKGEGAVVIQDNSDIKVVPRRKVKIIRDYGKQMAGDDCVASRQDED

IC50 [1]	IC50 [2]	SMILES	IC50 [3]	IC50 ([3]; Human immunodeficiency virus 1, 24 h)
60 µM	> 100 µM	COc1cc(OC)c2c(OC)c3c(cc2c1-c1c(OC)cc(OC)c2c(OC)c4c(cc12)OC(C)C(C)C4=O)OC(C)C(C)C3=O (configuration not stated)		
80 µM	> 100 µM	COc1cc(O)c2c(O)c3c(cc2c1-c1c(OC)cc(OC)c2c(OC)c4c(cc12)OC(C)C(C)C4=O)OC(C)C(C)C3=O (stereo in doubt; 9d)		
50 µM	> 100 µM	CC(=O)Oc1cc(OC(C)=O)c2c(OC(C)=O)c3c(cc2c1-c1c(OC(C)=O)cc(OC(C)=O)c2c(OC(C)=O)c4c(cc12)OC(C)C(C)C4=O)OC(C)C(C)C3=O (configuration not stated)		
40 µM	> 100 µM	COc1cc(O)c2c(O)c3c(cc2c1-c1c(OC)cc(OC)c2c(OC)c4c(cc12)OC(C)C(C)C4=O)OC(C)C(C)C3=O (stereo in doubt; 9e)		
8 µM	> 100 µM	COc1cc(O)c2c(OC)c3c(cc2c1-c1c(O)cc(OC)c2c(OC)c4c(cc12)OC(C)C(C)C4=O)OC(C)C(C)C3=O (configuration not stated)		
1 µM	4 µM	Cc1oc2cc3c(-c4c(O)cc(O)c5c(O)c6c(cc45)O[C@H](C)[C@H](C)C6=O)c(O)cc(O)c3c(O)c2c(=O)c1C		
3 µM	9 µM	C[C@@H]1Oc2cc3c(-c4c(O)cc(O)c5c(O)c6c(cc45)O[C@H](C)[C@@H](C)C(=O)O6)c(O)cc(O)c3c(O)c2C(=O)[C@@H]1C		
40 µM	> 100 µM	COc1cc(O)c2c(OC)c3c(cc2c1-c1c(OC)cc(OC)c2c(OC)c4c(cc12)OC(C)C(C)C4=O)OC(C)C(C)C3=O (configuration not stated)		

SMILES	IC50 [1]	IC50 [2]	IC50 [3]	IC50 ([3]; Human immunodeficiency virus 1, 24 h)
CC1Oc2cc3c(-c4c(O)cc(O)c5c(O)c6c(cc45)OC(C)C(C)C6=O)c(O)cc(O)c3c(O)c2C(=O)C1C (stereo in doubt; form 2)	2 µM	12 µM	2 µM	
CC1Oc2cc3c(-c4c(O)cc(O)c5c(O)c6c(cc45)OC(C)C(C)C6=O)c(O)cc(O)c3c(O)c2C(=O)C1C (stereo in doubt; form 1)	2 µM	12 µM		3 µM
